# Measured values: US12692254B2, “Benzimidazole inhibitors of PAD enzymes” (BRISTOL-MYERS SQUIBB COMPANY, priority 2018, dated 2026)
# pIC50: −log10 of the molar value.
# Target: human PAD4 (hPAD4) (Homo sapiens, UniProt Q9UM07)
# Experiment: RFMS human PAD4 functional assay (rapid-fire mass spectrum)
# Format: biochemical
# Conditions: 5 nM hPAD4 enzyme, 250 μM BAEE, 50 μM Calcium; 30 min preincubation, 90 min reaction at 37° C.
# Summary of the method: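 PAD4 (10 nM) preincubated 30 min with compound (top final 50 μM), then BAEE substrate added in pH 7.5 HEPES buffer with DTT, 50 μM calcium, TPEN; 90 min at 37° C. After TCA quench, citrulline derivatized with phenyl glyoxal (4 mM final, 30 min, 37° C) and quantified by RapidFire MS against internal standard.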
# human PAD4 (hPAD4), sequence (Q9UM07 whole entry): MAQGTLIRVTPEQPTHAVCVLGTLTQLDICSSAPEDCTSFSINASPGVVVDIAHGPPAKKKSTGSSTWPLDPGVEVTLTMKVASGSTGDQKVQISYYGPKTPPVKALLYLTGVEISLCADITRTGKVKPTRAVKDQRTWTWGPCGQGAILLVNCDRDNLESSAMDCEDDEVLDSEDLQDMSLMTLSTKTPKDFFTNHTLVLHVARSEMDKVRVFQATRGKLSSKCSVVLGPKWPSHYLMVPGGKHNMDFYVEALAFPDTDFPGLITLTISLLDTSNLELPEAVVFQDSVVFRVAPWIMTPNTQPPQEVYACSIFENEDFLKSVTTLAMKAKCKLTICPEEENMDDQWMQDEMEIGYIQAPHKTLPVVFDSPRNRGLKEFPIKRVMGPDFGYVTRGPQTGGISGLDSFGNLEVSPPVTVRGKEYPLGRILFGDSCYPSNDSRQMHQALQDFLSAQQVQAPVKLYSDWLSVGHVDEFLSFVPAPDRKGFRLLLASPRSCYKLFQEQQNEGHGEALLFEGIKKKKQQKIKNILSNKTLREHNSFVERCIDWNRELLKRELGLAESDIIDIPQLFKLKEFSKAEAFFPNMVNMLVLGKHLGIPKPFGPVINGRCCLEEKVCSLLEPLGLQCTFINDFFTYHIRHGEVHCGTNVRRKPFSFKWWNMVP
row,pIC50,SMILES
1,7.08,"N#Cc1ccc(C(=O)N2CC(Cn3c(-c4cc5cccnc5n4CC4CC4)nc4cc(C(=O)N5C[C@H]6CC[C@@H]5[C@@H]6N)cc(Cl)c43)C2)cc1 [Example 96, 4-[3-({5-[(1R,4R,7R)-7-amino-2-azabicyclo[2.2.1]heptane-2-carbonyl]-7-chloro-2-[1-(cyclopropylmethyl)-1H-pyrrolo[2,3-b]pyridin-2-yl]-1H-1,3-benzodiazol-1-yl}methyl)azetidine-1-carbonyl]benzonitrile]"
2,7.55,"COc1cc(C(=O)N2CC3CCC2[C@@H]3N)cc2nc(-c3cc4cccnc4n3CC3CC3)n(CC3CN(C(=O)c4ccccc4Cl)C3)c12 (stereo partly drawn) [Example 428, (7R)-2-(1-{[1-(2-chlorobenzoyl)azetidin-3-yl]methyl}-2-[1-(cyclopropylmethyl)-1H-pyrrolo[2,3-b]pyridin-2-yl]-7-methoxy-1H-1,3-benzodiazole-5-carbonyl)-2-azabicyclo[2.2.1]heptan-7-amine]"
3,6.67,"COc1cc(C(=O)N2C[C@H]3CC[C@@H]2[C@@H]3N)cc2nc(-c3cc4cccnc4n3CC3CC3)n(C3CN(c4cnc(C#N)nc4)C3)c12 [Example 75, 5-(3-{5-[(1R,4R,7R)-7-amino-2-azabicyclo[2.2.1]heptane-2-carbonyl]-2-[1-(cyclopropylmethyl)-1H-pyrrolo[2,3-b]pyridin-2-yl]-7-methoxy-1H-1,3-benzodiazol-1-yl}azetidin-1-yl)pyrimidine-2-carbonitrile]"
4,6.51,"COc1cc(C(=O)N2C[C@H]3CC[C@@H]2[C@@H]3N)cc2nc(-c3cc4cccnc4n3CC3CC3)n(C3CN(C(=O)c4ccnc(C#N)c4)C3)c12 [Example 184, 4-(3-{5-[(1R,4R,7R)-7-amino-2-azabicyclo[2.2.1]heptane-2-carbonyl]-2-[1-(cyclopropylmethyl)-1H-pyrrolo[2,3-b]pyridin-2-yl]-7-methoxy-1H-1,3-benzodiazol-1-yl}azetidine-1-carbonyl)pyridine-2-carbonitrile]"
5,7.14,"COc1cc(C(=O)N2CC3CCC2[C@@H]3N)cc2nc(-c3cc4cccnc4n3CC3CC3)n(CC3CCN(c4ncccn4)CC3)c12 (stereo partly drawn) [Example 220, (1R,4R,7R)-2-{2-[1-(cyclopropylmethyl)-1H-pyrrolo[2,3-b]pyridin-2-yl]-7-methoxy-1-{[1-(pyrimidin-2-yl)piperidin-4-yl]methyl)-1H-1,3-benzodiazole-5-carbonyl}-2-azabicyc1o[2.2.1]heptan-7-amine]"
6,7.42,"COc1cc(C(=O)N2C[C@H]3CC[C@@H]2[C@@H]3N)cc2nc(-c3cc4cccnc4n3CC3CC3)n(CC3CN(c4ccnc(S(C)(=O)=O)n4)C3)c12 [Example 13, (1R,4R,7R)-2-{2-[1-(cyclopropylmethyl)-1H-pyrrolo[2,3-b]pyridin-2-yl]-1-{[1-(2-methanesulfonylpyrimidin-4-yl)azetidin-3-yl]methyl}-7-methoxy-1H-1,3-benzodiazole-5-carbonyl}-2-azabicyclo[2.2.1]heptan-7-amine]"
7,6.85,"COc1cc(C(=O)N2C[C@H]3CC[C@@H]2[C@@H]3N)cc2nc(-c3cc4cccnc4n3CC3CC3)n(CC3CN(c4ccccc4)C3)c12 [Example 50, (1R,4R,7R)-2-{2-[1-(cyclopropylmethyl)-1H-pyrrolo[2,3-b]pyridin-2-yl]-7-methoxy-1-[(1-phenylazetidin-3-yl)methyl]-1H-1,3-benzodiazole-5-carbonyl}-2-azabicyclo[2.2.1]heptan-7-amine]"
8,6.34,"COc1cc(C(=O)N2C[C@H](N)C[C@@H](F)C2)cc2nc(-c3cc4ccccc4n3CC3CC3)n(Cc3ccon3)c12 [Example 278, (3R,5R)-1-{2-[1-(cyclopropylmethyl)-1H-indol-2-yl]-7-methoxy-1-[(1,2-oxazol-3-yl)methyl]-1H-1,3-benzodiazole-5-carbonyl)-5-fluoropiperidin-3-amine]"
9,7.30,"COc1cc(C(=O)N2CC3CCC2[C@@H]3N)cc2nc(-c3cc4ccccc4n3CC3CC3)n(Cc3cnn(-c4cnc(C#N)c(F)c4)c3)c12 (stereo partly drawn) [Example 394, 5-[4-({5-[(7R)-7-amino-2-azabicyclo[2.2.1]heptane-2-carbonyl]-2-[1-(cyclopropyimethyl)-1H-indol-2-yl]-7-methoxy-1H-1,3-benzodiazol-1-yl}methyl)-1H-pyrazol-1-yl]-3-fluoropyridine-2-carbonitrile]"
10,6.90,"COc1cc(N2CC(Cn3c(-c4cc5cccnc5n4CC4CC4)nc4cc(C(=O)N5C[C@H]6CC[C@@H]5[C@@H]6N)cc(OC)c43)C2)ccn1 [Example 49, (1R,4R,7R)-2-{2-[1-(cyclopropylmethyl)-1H-pyrrolo[2,3-b]pyridin-2-yl]-7-methoxy-1-{[1-(2-methoxypyridin-4-yl)azetidin-3-yl]methyl}-1H-1,3-benzodiazole-5-carbonyl}-2-azabicyclo[2.2.1]heptan-7-amine]"
11,7.66,"COc1cc(C(=O)N2C[C@H]3CC[C@@H]2[C@@H]3N)cc2nc(-c3cc4ccccc4n3CC3CC3)n(Cc3cc(C)nn3C)c12 [Example 252, (1R,4R,7R)-2-{2-[1-(cyclopropylmethyl)-1H-indol-2-yl]-1-[(1,3-dimethyl-1H-pyrazol-5-yl)methyl]-7-methoxy-1H-1,3-benzodiazole-5-carbonyl}-2-azabicyclo[2.2.1]heptan-7-amine]"
12,6.79,"COc1cc(C(=O)N2C[C@H]3CC[C@@H]2[C@@H]3N)cc2nc(-c3cc4cccnc4n3CC3CC3)n(C3CN(S(=O)(=O)c4ccccc4)C3)c12 [Example 329, (1R,4R,7R)-2-{1-[1-(benzenesulfonyl)azetidin-3-yl]-2-[1-(cyclopropylmethyl)-1H-pyrrolo[2,3-b]pyridin-2-yl]-7-methoxy-1H-1,3-benzodiazole-5-carbonyl}-2-azabicyclo[2.2.1]heptan-7-amine]"
13,7.59,"COc1cc(C(=O)N2CC3CCC2[C@@H]3N)cc2nc(-c3cc4cccnc4n3CC3CC3)n(Cc3cnn(-c4ncc(Cl)cc4F)c3)c12 (stereo partly drawn) [Example 342, ((7R)-7-amino-2-azabicyclo[2.2.1]heptan-2-yl)(1-((1-(5-chloro-3-fluoropyridin-2-yl)-1H-pyrazol-4-yl)methyl)-2-(1-(cyclopropylmethyl)-1H-pyrrolo[2,3-b]pyridin-2-yl)-7-methoxy-1H-benzo[d]imidazol-5-yl)methanone]"
14,7.77,"COc1cc(C(=O)N2C[C@H]3CC[C@@H]2[C@@H]3N)cc2nc(-c3cc4ccccc4n3CC3CC3)n(CC3CN(C(=O)C4CCCC4)C3)c12 [Example 144, (1R,4R,7R)-2-{1-[(1-cyclopentanecarbonylazetidin-3-yl)methyl]-2-[1-(cyclopropylmethyl)-1H-indol-2-yl]-7-methoxy-1H-1,3-benzodiazole-5-carbonyl}-2-azabicyclo[2.2.1]heptan-7-amine]"
15,7.72,"COc1cc(C(=O)N2CC3CCC2[C@@H]3N)cc2nc(-c3cc4ccccc4n3CC3CC3)n(C[C@H]3CCN(c4ccnc(C)n4)C3)c12 (stereo partly drawn) [Example 224, (1R.,4R,7R)-2-{2-[1-(cyclopropylmethyl)-1H-indol-2-yl]-7-methoxy-1-{[(3S)-1-(2-methylpyrimidin-4-yl)pyrrolidin-3-yl]methyl}-1H-1,3-benzodiazole-5-carbonyl}-2-azabicyclo[2.2.1]heptan-7-amine]"
16,7.55,"COc1cc(C(=O)N2C[C@H](N)C[C@@H](F)C2)cc2nc(-c3cc4ccccc4n3CC3CC3)n(CC3CN(C(=O)c4ccc(C#N)cc4)C3)c12 [Example 90, 4-[3-({5-[(3R,5R)-3-amino-5-fluoropiperidine-1-carbonyl]-2-[1-(cyclopropylmethyl)-1H-indol-2-yl]-7-methoxy-1H-1,3-benzodiazol-1-yl}methyl)azetidine-1-carbonyl]benzonitrile]"
17,7.47,"COc1cc(C(=O)N2CC3CCC2[C@@H]3N)cc2nc(-c3cc4ccccc4n3CC3CC3)n(CC3CN(C(=O)c4cnccn4)C3)c12 (stereo partly drawn) [Example 436, (7R)-2-{2-[1-(cyclopropylmethyl)-1H-indol-2-yl]-7-methoxy-1-{[1-(pyrazine-2-carbonyl)azetidin-3-yl]methyl}-1H-1,3-benzodiazole-5-carbonyl}-2-azabicyclo[2.2.1]heptan-7-amine]"
18,7.32,"COc1cc(C(=O)N2C[C@H](N)C[C@@H](F)C2)cc2nc(-c3cc4cccnc4n3CC3CC3)n(CC3CN(C(=O)c4ccccc4)C3)c12 [Example 452, (3R,5R)-1-{[(1-benzoylazetidin-3-yl)methyl]-2-[1-(cyclopropylmethyl)-1H-pyrrolo[2,3-b]pyridin-2-yl]-7-methoxy-1H-1,3-benzodiazole-5-carbonyl}-5-fluoropiperidin-3-amine]"
19,7.85,"COc1cc(C(=O)N2C[C@H]3CC[C@@H]2[C@@H]3N)cc2nc(-c3cc4ccccc4n3CC3CC3)n(CC3CN(C(=O)c4ccc(O)cc4)C3)c12 [Example 140, 4-[3-({5-[(1R,4R,7R)-7-amino-2-azabicyclo[2.2.1]heptane-2-carbonyl]-2-[1-(cyclopropylmethyl)-1H-indol-2-yl]-7-methoxy-1H-1,3-benzodiazol-1-yl}methyl)azetidine-1-carbonyl]phenol]"
20,6.52,"COc1cc(C(=O)N2C[C@H]3CC[C@@H]2[C@@H]3N)cc2nc(-c3cc4cccnc4n3CC3CC3)n(CC3CCNCC3)c12 [Example 305, (1R,4R,7R)-2-{2-[1-(cyclopropylmethyl)-1H-pyrrolo[2,3-b]pyridin-2-yl]-7-methoxy-1-[(piperidin-4-yl)methyl]-1H-1,3-benzodiazole-5-carbonyl)-2-azabicyclo[2.2.1]heptan-7-amine]"
21,7.37,"COc1cc(C(=O)N2C[C@H](N)C[C@@H](F)C2)cc2nc(-c3cc4cccnc4n3CC3CC3)n(Cc3cnn(-c4cccc(Cl)n4)c3)c12 [Example 389, (3R,5R)-1-(1-{[1-(6-chloropyridin-2-yl)-1H-pyrazol-4-yl]methyl}-2-[1-(cyclopropylmethyl)-1H-pyrrolo[2,3-b]pyridin-2-yl]-7-methoxy-1H-1,3-benzodiazole-5-carbonyl)-5-fluoropiperidin-3-amine]"
